Among the data in EP2745708A1, “Antidepressant effect of ß-hydroxy-ß-methylbutyrate” (Abbott Laboratories, Inc., priority 2012, dated 2014) are latency to immobility values, retold here.

For this assay, the system named is rats. As to the kind of experiment: Forced swimming test (FST) in rats. In kind it is in vivo. The settings on record: forced swim test, oral 250 mg/kg or 500 mg/kg body weight after pre-swim and four hours and one hour prior to 5 minute test swim, two independent experiments. How it is done:
The antidepressant effect of HMB was evaluated using the forced swimming test (FST) using the procedure described by Porsolt et al. (Eur. J. Pharmacol. 47(4). 379-91 (1978)). To begin the experiment, rats were individually placed inside vertical cylinders (height 40 cm; diameter 21.5 cm) containing 30 cm of water at 35 °C for 15 minutes (i.e., "pre-swim). Following this pre-swim period, the rats were removed and allowed to dry in a heated enclosure before returning to their cages. The rats were then orally administered a dose of either 250 mg/kg body weight or 500 mg/kg body weight HMB.
Twenty-four hours later, rats were submitted to the test swim, in which the rats were again placed in the cylinder for 5 minutes. Test swims were videotaped and subsequently assessed for latency to immobility, which is the point at which no movements were observed and the rat was in the "deadman" position (i.e., head up, tail down, front legs slightly hunched, and rear legs pointed downwards). Rats were orally administered their respective doses of either 250 mg/kg body weight or 500 mg/kg body weight of HMB four hours and one hours prior to the swim test.

As to `CC(C)(O)CC(=O)O` [HMB, 3-hydroxy-3-methylbutanoic acid], the latency to immobility entry was “significantly increased”.
